PubChem BioAssay (NCI)
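The compound was tested at five concentrations on cells cultured in 96-well plates, with a 48-hour exposure period. GI50 is the concentration that inhibits growth by half. TGI: total growth inhibition.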

Assays:
Assay in all cases: growth of human tumour cells (NCI), 48 h
SW-620 colon = tested on: SW-620 colon
OVCAR-8 ovarian = tested on: OVCAR-8 ovarian
RXF 393 renal = tested on: RXF 393 renal
UACC-257 melanoma = tested on: UACC-257 melanoma
NCI-H226 lung = tested on: NCI-H226 lung
786-0 renal = tested on: 786-0 renal
OVCAR-5 ovarian = tested on: OVCAR-5 ovarian
RPMI-8226 leukemia = tested on: RPMI-8226 leukemia
PC-3 prostate = tested on: PC-3 prostate
NCI/ADR-RES ovarian = tested on: NCI/ADR-RES ovarian

| SMILES | TGI (SW-620 colon) [µM] | TGI (OVCAR-8 ovarian) [µM] | TGI (RXF 393 renal) [µM] | TGI (UACC-257 melanoma) [µM] | TGI (NCI-H226 lung) [µM] | TGI (786-0 renal) [µM] | TGI (OVCAR-5 ovarian) [µM] | TGI (RPMI-8226 leukemia) [µM] | GI50 (SW-620 colon) [µM] | GI50 (OVCAR-8 ovarian) [µM] | GI50 (UACC-257 melanoma) [µM] | GI50 (786-0 renal) [µM] | GI50 (RPMI-8226 leukemia) [µM] | GI50 (OVCAR-5 ovarian) [µM] | TGI (PC-3 prostate) [µM] | TGI (NCI/ADR-RES ovarian) [µM] | GI50 (RXF 393 renal) [µM] | GI50 (NCI-H226 lung) [µM] | GI50 (NCI/ADR-RES ovarian) [µM] |
| --- | --- | --- | --- | --- | --- | --- | --- | --- | --- | --- | --- | --- | --- | --- | --- | --- | --- | --- | --- |
| C[Si](C)(C)CN1C(=O)c2ccccc2C1(O)c1ccccc1 (centres undefined) | > 100 | > 100 | > 100 | > 100 | > 100 | > 100 | > 100 | – | – | – | – | – | – | – | – | – | – | – | – |
| Cc1ccc(C)c(N2C(=O)C(=O)C(c3nc4ccccc4o3)/C(=N/N)C2=O)c1 (centres undefined) | > 100 | > 100 | > 100 | > 100 | > 100 | > 100 | – | – | – | – | – | – | – | – | – | – | – | – | – |
| CC1COS(=O)O1 (centres undefined) | > 100 | > 100 | – | > 100 | > 100 | > 100 | > 100 | > 100 | – | – | – | – | – | – | – | – | – | – | – |
| CCOc1ccc(N=Cc2c3ccccc3nc3ccccc23)cc1 | > 100 | > 100 | > 100 | > 100 | > 100 | > 100 | – | > 100 | – | – | – | – | – | – | – | – | – | – | – |
| O=C1c2ccc3c4ccccc4n(-c4ccccc4)c3c2C(=O)N1c1ccc(Cl)cc1 | > 100 | > 100 | > 100 | > 100 | > 100 | > 100 | > 100 | – | – | – | – | – | – | – | – | – | – | – | – |
| Nc1ccc(C2=N/C(=C\c3cccc(N)c3)C(=O)O2)cc1 | > 100 | > 100 | > 100 | – | – | > 100 | > 100 | – | – | – | – | – | – | – | – | – | – | – | – |
| CCOC(=O)C1=C(Nc2ccc(Br)cc2)OCC1=O | > 100 | > 100 | > 100 | > 100 | > 100 | > 100 | – | – | – | – | – | – | – | – | – | – | – | – | – |
| O=C1C2[C@@H](C(=O)N1c1ccc(Br)cc1)C13C(=CC2([N+](=O)[O-])[C@@H]2C(=O)N(c4ccc(Br)cc4)C(=O)[C@@H]21)c1ccccc1N3c1ccccc1 (some centres undefined) | > 100 | > 100 | > 100 | > 100 | > 100 | 31.1 | > 100 | > 100 | – | – | – | – | – | – | – | – | – | – | – |
| NCCN.O=C([O-])[O-].O=C([O-])[O-].[Co+3].[K+] | > 100 | > 100 | – | > 100 | – | > 100 | > 100 | > 100 | > 100 | > 100 | > 100 | > 100 | > 100 | > 100 | – | – | – | – | – |
| O=[N+]([O-])c1ccc(Sc2c3ccccc3nc3ccccc23)cn1 | > 57.4 | 52.5 | 60.3 | 31.8 | > 100 | 8.48 | > 100 | – | – | – | – | – | – | – | 38.1 | > 100 | – | – | – |
| Cc1ccc2[c](c1)[Sn]([c]1ccccc1)([c]1ccccc1)[c]1cc(C)ccc1N2C | 53.7 | > 100 | 31.8 | > 100 | > 100 | > 100 | > 100 | – | 18.9 | 57.3 | 57.8 | 16.2 | – | 70.3 | – | – | 11.3 | 49 | – |
| NC(=S)N/N=C1\CCCC\C1=C/c1ccccc1 | > 100 | > 100 | > 100 | 44.4 | – | > 100 | 70.4 | 38.2 | – | – | – | – | – | – | – | – | – | – | – |
| CSc1ccc2c(cc1=O)[C@@H](NC(=O)c1cc(O)c(O)c(O)c1)CCc1cc(O)c(O)c(O)c1-2 | 39.6 | 54.2 | – | 34.3 | 35 | > 100 | 31.3 | – | – | – | – | – | – | – | – | – | – | – | – |
| CC1CCC(C(C)(C)c2ccccc2)C(=O)C1 (centres undefined) | > 100 | > 100 | – | > 100 | – | > 100 | > 100 | > 100 | – | – | – | – | – | – | – | – | – | – | – |
| C1=NC(N(Cc2ccccc2)Cc2ccccc2)N(Cc2ccccc2)N1 (centres undefined) | 49.9 | 54.5 | 30.4 | 33.5 | 33.5 | 35.4 | 42 | 32.9 | – | – | – | – | – | – | – | – | – | – | – |
| COc1cc(/C=N\O[Si](C)(C)C(C)(C)C)ccc1O[Si](C)(C)C(C)(C)C | > 100 | > 100 | > 100 | > 100 | – | > 100 | 68.7 | > 100 | – | – | – | – | – | – | – | – | – | – | – |
| CCOC(=O)C(C)(c1c(C)[nH]c2ccccc12)c1c(C)[nH]c2ccccc12 | 40.8 | 81.7 | 25.8 | 28 | 32.9 | 43 | 35.5 | 46.2 | – | – | – | – | – | – | – | – | – | – | – |

| SMILES | TGI (SW-620 colon) [µM] | TGI (OVCAR-8 ovarian) [µM] | TGI (RXF 393 renal) [µM] | TGI (UACC-257 melanoma) [µM] | TGI (NCI-H226 lung) [µM] | TGI (786-0 renal) [µM] | TGI (OVCAR-5 ovarian) [µM] | TGI (RPMI-8226 leukemia) [µM] | GI50 (SW-620 colon) [µM] | GI50 (OVCAR-8 ovarian) [µM] | GI50 (UACC-257 melanoma) [µM] | GI50 (786-0 renal) [µM] | GI50 (RPMI-8226 leukemia) [µM] | GI50 (OVCAR-5 ovarian) [µM] | TGI (PC-3 prostate) [µM] | TGI (NCI/ADR-RES ovarian) [µM] | GI50 (RXF 393 renal) [µM] | GI50 (NCI-H226 lung) [µM] | GI50 (NCI/ADR-RES ovarian) [µM] |
| --- | --- | --- | --- | --- | --- | --- | --- | --- | --- | --- | --- | --- | --- | --- | --- | --- | --- | --- | --- |
| CC(=O)[CH-]C(=O)c1ccccc1.CC(=O)[CH-]C(=O)c1ccccc1.O=S(=O)([O-])c1cc([O-])c2c([O-])cc(S(=O)(=O)[O-])cc2c1.[Na+].[Ti+4] | > 100 | > 100 | – | > 100 | > 100 | > 100 | > 100 | > 100 | > 100 | > 100 | 77.1 | > 100 | > 100 | > 100 | – | – | – | 47.5 | – |
| CCCCCCCCCCCCCCCCCCC1=C(O)C(=O)C=C(OC)C1=O | > 100 | > 100 | > 100 | > 100 | > 100 | > 100 | > 100 | – | – | – | – | – | – | – | – | – | – | – | – |
| COC(=O)c1c[nH]cc1CCCCc1c[nH]cc1C(=O)OC | > 100 | > 100 | > 100 | > 100 | > 100 | > 100 | > 100 | – | – | – | – | – | – | – | – | – | – | – | – |
| NC(=O)c1cn(Cc2ccccc2)c(=O)n1Cc1ccccc1 | > 100 | > 100 | > 100 | > 100 | > 100 | > 100 | > 100 | > 100 | – | – | – | – | – | – | – | – | – | – | – |
| CC(C)(C)OC(=O)N1C2CCCC23O[C@@H]1c1cc2c(cc1C3=O)OCO2 (some centres undefined) | > 100 | > 100 | 83.2 | > 100 | > 100 | > 100 | > 100 | – | – | – | – | – | – | – | – | – | – | – | – |
| Cc1ccc(C)c(N2C(=O)C(=O)C(c3nc4ccccc4o3)/C(=N\NC(=O)c3ccccc3O)C2=O)c1 (centres undefined) | > 100 | 76.7 | – | > 100 | 88.6 | > 100 | > 100 | 77.8 | – | – | – | – | – | – | – | – | – | – | – |
| O=C1c2ccccc2C(=O)N1C/C=N/NS(=O)(=O)c1ccc(Br)cc1 | > 100 | > 100 | – | > 100 | > 100 | > 100 | > 100 | > 100 | – | – | – | – | – | – | – | – | – | – | – |
| Cc1c(Cl)cccc1NC(=O)c1cccc([N+](=O)[O-])c1O | > 100 | > 100 | 19.7 | 38.8 | 56.3 | > 78.1 | > 93.8 | > 60 | – | – | – | – | – | – | – | – | – | – | – |
| COc1cc(C(=O)O[C@H](C(N)=O)[C@]2(C)CO2)c2cccc(C)c2c1 | 1.72 | 0.438 | 1.1 | > 21.3 | – | 5.75 | 6.01 | – | < 0.01 | < 0.01 | 1.49 | 2.31 | – | 0.766 | 2.76 | 0.507 | 0.148 | – | 0.108 |
| COc1cc(-c2nnc3n2NC=C(C(=O)O)S3)cc(OC)c1OC | > 62 | > 100 | > 100 | > 100 | > 100 | > 76.3 | > 100 | > 68.7 | – | – | – | – | – | – | – | – | – | – | – |
| C[P+](C)(C)c1ccccc1 | > 100 | > 100 | > 100 | > 100 | > 100 | > 100 | > 100 | > 100 | – | – | – | – | – | – | – | – | – | – | – |
| COc1cc2c(cc1OC)C1Cc3cc(OC)c(OC)cc3N1CC2 (centres undefined) | > 100 | > 100 | – | > 100 | 47.9 | 37.9 | > 100 | 88 | – | – | – | – | – | – | – | – | – | – | – |
| C1COCCSC2=C(SCCO1)SC(=C1SC3=C(SCCOCCOCCS3)S1)S2 | > 100 | > 100 | > 100 | > 100 | > 100 | > 100 | > 100 | – | – | – | – | – | – | – | – | – | – | – | – |
| CCC[CH2][Sn]1([CH2]CCC)[O]CC(COc2c(Cl)cc(Cl)cc2Cl)[O]1 (centres undefined) | 2.62 | 2.37 | 2.73 | 2.33 | 3.82 | 2.74 | 3.46 | 3.72 | 1.13 | 1.12 | 1.11 | 1.41 | 0.78 | 2.02 | – | – | 1.27 | 1.82 | – |
| CCOC(=O)c1sc(NC(=O)COc2cccc(/C=C3\CCc4cc(OC)ccc4C3=O)c2)nc1C | 13.3 | 25.3 | 8.44 | > 100 | > 100 | > 100 | > 100 | 3.38 | 3.79 | 4.59 | 9.79 | 17 | 1.2 | 13.5 | – | > 100 | 2.83 | 28.3 | 4.84 |
| O=C1C=CC(=CC=C2C=CN(CCCCCCCCCCC(=O)NCCCCCCCCCCCC(=O)O)C=C2)C=C1 | > 100 | > 100 | > 100 | > 100 | > 100 | > 100 | > 100 | > 100 | – | – | – | – | – | – | – | – | – | – | – |
| NC(CCc1ncc(C(=O)O)s1)C(=O)O (centres undefined) | > 100 | > 100 | > 100 | > 100 | > 100 | > 100 | – | > 100 | – | – | – | – | – | – | – | – | – | – | – |
